Here are results for 14 molecules from patent US20250084056A1, “SUBSTITUTED OXOISOINDOLINYL PIPERIDINE-2,6-DIONE COMPOUNDS” (BRISTOL-MYERS SQUIBB COMPANY, priority 2023, published 2025).

What all share (format): cell-based
One experiment deals with GSPT1 (Homo sapiens, UniProt P15170+Q96SW2). The experiment in a line: GSPT1 Cellular Degradation Assay (DF15-GSPT1-ePL). Details: expressed in transfected cells. The conditions noted are these: DF15-GSPT1-ePL cells, 20 hours. The method, boiled down: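 DC50 and Dmax were derived from chemiluminescence, with 75% response set by the reference compound at […]. Readout was ePL enzyme-fragment complementation in a DF15 line expressing chimeric GSPT1. Cells were exposed to compound for 20 h at 37 °C in RPMI 1640 with 10% FBS, cooled 30 min, then lysed with substrate for 60 min.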
GSPT1, sequence (P15170 whole entry, the tested form may be a part): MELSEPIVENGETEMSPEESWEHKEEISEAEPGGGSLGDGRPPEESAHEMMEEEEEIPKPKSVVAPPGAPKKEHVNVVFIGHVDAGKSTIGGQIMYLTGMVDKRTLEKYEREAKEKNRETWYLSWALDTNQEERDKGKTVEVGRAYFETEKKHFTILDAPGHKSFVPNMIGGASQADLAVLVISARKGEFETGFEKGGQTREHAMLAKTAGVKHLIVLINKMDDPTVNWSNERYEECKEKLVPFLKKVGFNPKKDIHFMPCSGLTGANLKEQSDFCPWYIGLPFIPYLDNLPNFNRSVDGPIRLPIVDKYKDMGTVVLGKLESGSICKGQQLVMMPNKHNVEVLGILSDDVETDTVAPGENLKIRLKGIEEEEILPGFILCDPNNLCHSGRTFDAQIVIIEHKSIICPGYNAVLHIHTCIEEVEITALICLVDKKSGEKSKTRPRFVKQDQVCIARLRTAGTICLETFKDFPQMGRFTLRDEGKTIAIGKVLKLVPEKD
GSPT1, sequence (Q96SW2 whole entry, the tested form may be a part): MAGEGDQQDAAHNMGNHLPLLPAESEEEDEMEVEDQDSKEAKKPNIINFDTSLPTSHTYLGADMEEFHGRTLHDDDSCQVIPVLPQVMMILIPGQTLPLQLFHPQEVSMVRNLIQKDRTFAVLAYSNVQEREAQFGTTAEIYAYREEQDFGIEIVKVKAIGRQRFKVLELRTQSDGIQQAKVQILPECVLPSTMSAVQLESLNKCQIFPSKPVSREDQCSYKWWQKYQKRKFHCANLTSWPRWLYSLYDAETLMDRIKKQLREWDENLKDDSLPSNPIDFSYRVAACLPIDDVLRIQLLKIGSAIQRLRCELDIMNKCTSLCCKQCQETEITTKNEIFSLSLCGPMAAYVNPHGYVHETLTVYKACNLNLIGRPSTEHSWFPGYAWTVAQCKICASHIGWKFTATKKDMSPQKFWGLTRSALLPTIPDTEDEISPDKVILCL
GSPT1, sequence (Q16531 whole entry partner, the tested form may be a part): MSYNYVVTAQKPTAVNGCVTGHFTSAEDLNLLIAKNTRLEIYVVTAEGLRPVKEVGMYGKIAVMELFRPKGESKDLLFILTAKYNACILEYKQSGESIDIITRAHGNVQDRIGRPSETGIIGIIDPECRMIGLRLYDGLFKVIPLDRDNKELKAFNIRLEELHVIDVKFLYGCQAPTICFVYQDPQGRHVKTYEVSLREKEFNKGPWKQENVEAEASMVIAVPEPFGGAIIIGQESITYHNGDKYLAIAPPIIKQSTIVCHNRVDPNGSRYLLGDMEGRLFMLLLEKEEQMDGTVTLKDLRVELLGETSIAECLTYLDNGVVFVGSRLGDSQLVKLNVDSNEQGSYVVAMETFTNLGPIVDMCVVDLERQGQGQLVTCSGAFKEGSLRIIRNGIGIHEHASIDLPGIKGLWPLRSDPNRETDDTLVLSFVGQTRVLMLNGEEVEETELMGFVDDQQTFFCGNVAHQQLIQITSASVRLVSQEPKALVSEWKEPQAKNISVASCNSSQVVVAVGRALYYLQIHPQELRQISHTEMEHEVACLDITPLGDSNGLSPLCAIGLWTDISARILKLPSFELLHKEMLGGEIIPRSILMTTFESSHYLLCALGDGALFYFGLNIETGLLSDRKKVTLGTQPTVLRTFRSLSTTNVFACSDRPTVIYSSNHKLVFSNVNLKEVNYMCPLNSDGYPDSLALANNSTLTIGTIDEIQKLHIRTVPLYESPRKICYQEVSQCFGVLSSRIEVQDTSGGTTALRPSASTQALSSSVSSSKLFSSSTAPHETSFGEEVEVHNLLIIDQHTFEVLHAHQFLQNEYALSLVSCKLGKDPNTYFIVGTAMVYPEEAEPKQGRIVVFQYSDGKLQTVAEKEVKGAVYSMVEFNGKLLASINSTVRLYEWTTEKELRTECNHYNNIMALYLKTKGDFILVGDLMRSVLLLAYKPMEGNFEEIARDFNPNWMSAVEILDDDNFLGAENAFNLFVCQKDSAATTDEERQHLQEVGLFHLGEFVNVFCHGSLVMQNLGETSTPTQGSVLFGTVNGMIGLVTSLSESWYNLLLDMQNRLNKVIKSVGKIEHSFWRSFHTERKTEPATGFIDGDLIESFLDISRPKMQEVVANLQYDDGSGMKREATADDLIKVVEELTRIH

The target of another experiment is Cyclin E1 (Homo sapiens, UniProt P24864+Q96SW2). Nature of the experiment: Cyclin E1 Cellular Degradation Assay (MSD). Details: endogenous in cells; host or cells: OVCAR3. The conditions noted are these: for DC50 / Dmax: Cyclin E1 cellular degradation; for Dmax: maximum degradation; for Ratio of GSPT1 DC50/Cyclin E1 DC50: selectivity for degradation of Cyclin E1 over GSPT1. In short, it runs like this: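 Cyclin E1 remaining after 24 h compound exposure of OVCAR3 cells was quantified in lysates by electrochemiluminescent MSD sandwich assay. DC50 (50% response concentration) and Dmax (maximum response) were calculated, with 110% response set by a reference compound at […].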
Cyclin E1, sequence (P24864 whole entry): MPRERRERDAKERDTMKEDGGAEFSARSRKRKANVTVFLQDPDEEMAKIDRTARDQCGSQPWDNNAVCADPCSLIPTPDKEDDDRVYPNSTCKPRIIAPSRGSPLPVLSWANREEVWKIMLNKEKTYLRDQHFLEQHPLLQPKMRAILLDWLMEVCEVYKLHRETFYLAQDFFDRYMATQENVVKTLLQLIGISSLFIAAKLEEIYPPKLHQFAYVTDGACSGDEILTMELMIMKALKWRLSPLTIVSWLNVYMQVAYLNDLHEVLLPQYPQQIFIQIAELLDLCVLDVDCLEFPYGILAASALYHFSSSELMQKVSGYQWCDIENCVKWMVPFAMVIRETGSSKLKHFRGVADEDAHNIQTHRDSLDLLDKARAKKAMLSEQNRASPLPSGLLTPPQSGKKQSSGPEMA
Cyclin E1, sequence (Q96SW2 whole entry): as the sequence (Q96SW2 whole entry, the tested form may be a part) above
Cyclin E1, sequence (Q16531 whole entry partner): as the sequence (Q16531 whole entry partner, the tested form may be a part) above

In another experiment the test system is Phospho-Rb (Ser807/811). Nature of the experiment: Phospho-Retinoblastoma (pRB) Cellular Assay. The conditions noted are these: Homo sapiens, OVCAR-3, NIH OVCAR3 cells, 24 hours; for IC50: concentration giving 50% response; for Emax: maximum response, reference compound at 10 μM = 100%, read-out: pRB Ymax. The method, boiled down:
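Phospho-Rb (Ser807/811) kit read-out on EnVision after lysis (≥4 h, room temperature, dark) of OVCAR3 cells exposed to compound dilutions for 24 h. IC50 and maximum response Ymax are relative to a 10 μM reference compound defining 100%.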

Bounds are passed on as bounds.

For orientation: DC50 means the midpoint of the concentration-degradation curve. Lower therefore signals degradation at low concentration. One may read the Dmax as the greatest extent of degradation seen. As a reminder, the IC50 is the concentration needed to halve the response being measured. Turning to `CC(=O)N1CCC(Oc2c(COC(=O)Nc3ccc(Oc4ccc(F)c(F)c4)cc3)ccc3c2C(=O)N(C2CCC(=O)NC2=O)C3)CC1` (centres unmarked) [Example 179, {4-[(1-acetylpiperidin-4-yl)oxy]-2-(2,6-dioxopiperidin-3-yl)-3-oxo-2,3-dihydro-1H-isoindol-5-yl}methyl N-[4-(3,4-difluorophenoxy)phenyl]carbamate], at GSPT1, the half-maximal degradation concentration (DC50) was over 14 µM and the Dmax turned out to be 10%. Moreover, at Cyclin E1, half-maximal degradation (DC50) was put at 224 nM, the Dmax worked out at 104% and the “Ratio of GSPT1 DC50/Cyclin E1 DC50” value is over 62. Further, in the experiment with Phospho-Rb (Ser807/811), the IC50 was determined as 42 nM and the Emax turned out to be 140%.
In the case of `O=C1CCC(N2Cc3ccc(COC(=O)Nc4ccc(Oc5ccc(F)c(F)c5)cc4)c(Oc4cccnc4)c3C2=O)C(=O)N1` (centres unmarked) [Example 172, [2-(2,6-dioxopiperidin-3-yl)-3-oxo-4-(pyridin-3-yloxy)-2,3-dihydro-1H-isoindol-5-yl]methyl N-[4-(3,4-difluorophenoxy)phenyl]carbamate], at GSPT1, the half-maximal degradation concentration (DC50) is over 14 µM and the Dmax stood at 6%. For the same molecule, at Cyclin E1, half-maximal degradation (DC50) was put at 79 nM, the Dmax stood at 100% and the “Ratio of GSPT1 DC50/Cyclin E1 DC50” value is given as over 177. Further, in the experiment with Phospho-Rb (Ser807/811), 118 nM corresponded to half-maximal inhibition (IC50) and the Emax amounted to 120%.
For `COc1c(COC(=O)Nc2ccc(Oc3ccc(F)cc3F)cc2F)ccc2c1C(=O)N(C1CCC(=O)NC1=O)C2` (centres unmarked) [Example 30, [2-(2,6-dioxopiperidin-3-yl)-4-methoxy-3-oxo-2,3-dihydro-1H-isoindol-5-yl]methyl N-[4-(2,4-difluorophenoxy)-2-fluorophenyl]carbamate], on GSPT1, the 50% degradation concentration (DC50) was over 14 µM and the Dmax was 31%. At Cyclin E1, the DC50 is 672 nM, the Dmax is 103% and the “Ratio of GSPT1 DC50/Cyclin E1 DC50” value is listed as over 21. Also, in the experiment on Phospho-Rb (Ser807/811), the IC50 came to 442 nM and the Emax was determined as 107%.
In the case of `CC(C)Oc1c(COC(=O)Nc2ccc(Oc3ccc(F)c(F)c3)cc2F)ccc2c1C(=O)N(C1CCC(=O)NC1=O)C2` (centres unmarked) [Example 119, [2-(2,6-dioxopiperidin-3-yl)-3-oxo-4-(propan-2-yloxy)-2,3-dihydro-1H-isoindol-5-yl]methyl N-[4-(3,4-difluorophenoxy)-2-fluorophenyl]carbamate], on GSPT1, the 50% degradation concentration (DC50) was over 14 µM and the Dmax was 10%. Further, at Cyclin E1, half-maximal degradation (DC50) was put at 116 nM, the Dmax turned out to be 107% and the “Ratio of GSPT1 DC50/Cyclin E1 DC50” value was over 120. Also, in the experiment on Phospho-Rb (Ser807/811), the IC50 amounted to 54 nM and the Emax came out at 111%.
For the molecule `COc1c(COC(=O)Nc2ccc(C(F)(F)c3ccccc3)cc2)ccc2c1C(=O)N(C1CCC(=O)NC1=O)C2` (centres unmarked) [Example 29, [2-(2,6-dioxopiperidin-3-yl)-4-methoxy-3-oxo-2,3-dihydro-1H-isoindol-5-yl]methyl N-{4-[difluoro(phenyl)methyl]phenyl}carbamate], at GSPT1, the DC50 was over 14 µM and the Dmax stood at 45%. Also, on Cyclin E1, the DC50 was found to be 1430 nM, the Dmax stood at 92% and the “Ratio of GSPT1 DC50/Cyclin E1 DC50” value is over 10. Moreover, in the experiment with Phospho-Rb (Ser807/811), the IC50 is 865 nM and the Emax turned out to be 99%.
With `COc1c(COC(=O)Nc2ccc(Oc3cc(Cl)cc(Cl)c3)cc2F)ccc2c1C(=O)N(C1CCC(=O)NC1=O)C2` (centres unmarked) [Example 118, [2-(2,6-dioxopiperidin-3-yl)-4-methoxy-3-oxo-2,3-dihydro-1H-isoindol-5-yl]methyl N-[4-(3,5-dichlorophenoxy)-2-fluorophenyl]carbamate], at GSPT1, the half-maximal degradation concentration (DC50) is over 14 µM and the Dmax amounted to 24%. Moreover, at Cyclin E1, the DC50 was determined as 417 nM, the Dmax worked out at 96% and the “Ratio of GSPT1 DC50/Cyclin E1 DC50” value is listed as over 34. Further, in the experiment on Phospho-Rb (Ser807/811), the IC50 is 299 nM and the Emax amounted to 105%.
Consider `COc1c(COC(=O)Nc2ccc(Oc3ccc(F)cc3C(F)F)cc2)ccc2c1C(=O)N(C1CCC(=O)NC1=O)C2` (centres unmarked) [Example 89, [2-(2,6-dioxopiperidin-3-yl)-4-methoxy-3-oxo-2,3-dihydro-1H-isoindol-5-yl]methyl N-{4-[2-(difluoromethyl)-4-fluorophenoxy]phenyl}carbamate], for which, at GSPT1, the half-maximal degradation concentration (DC50) was over 14 µM and the Dmax was found to be 42%. On Cyclin E1, it took 289 nM to reach half-maximal degradation (DC50), the Dmax was 101% and the “Ratio of GSPT1 DC50/Cyclin E1 DC50” value is over 48. Also, in the experiment with Phospho-Rb (Ser807/811), 159 nM corresponded to half-maximal inhibition (IC50) and the Emax turned out to be 108%.
For the molecule `COc1c(COC(=O)Nc2ccc(Oc3ccc(F)c(C)c3)cc2F)ccc2c1C(=O)N(C1CCC(=O)NC1=O)C2` (centres unmarked) [Example 99, [2-(2,6-dioxopiperidin-3-yl)-4-methoxy-3-oxo-2,3-dihydro-1H-isoindol-5-yl]methyl N-[2-fluoro-4-(4-fluoro-3-methylphenoxy)phenyl]carbamate], at GSPT1, the DC50 is over 14 µM and the Dmax is 22%. In addition, on Cyclin E1, it took 118 nM to reach half-maximal degradation (DC50), the Dmax amounted to 109% and the “Ratio of GSPT1 DC50/Cyclin E1 DC50” value is on record as over 118. For the same molecule, in the experiment with Phospho-Rb (Ser807/811), the concentration for half-maximal inhibition (IC50) was 221 nM and the Emax amounted to 114%.
As for `COc1c(COC(=O)Nc2ccc(Oc3cc(F)cc(F)c3)cc2F)ccc2c1C(=O)N(C1CCC(=O)NC1=O)C2` (centres unmarked) [Example 24, [2-(2,6-dioxopiperidin-3-yl)-4-methoxy-3-oxo-2,3-dihydro-1H-isoindol-5-yl]methyl N-[4-(3,5-difluorophenoxy)-2-fluorophenyl]carbamate], at GSPT1, the DC50 was over 14 µM and the Dmax was 10%. Also, on Cyclin E1, the half-maximal degradation concentration (DC50) was found to be 39 nM, the Dmax turned out to be 107% and the “Ratio of GSPT1 DC50/Cyclin E1 DC50” value was over 358. In the experiment on Phospho-Rb (Ser807/811), inhibition was half-maximal at 229 nM (IC50) and the Emax stood at 105%.
Regarding `COc1c(COC(=O)Nc2ccc(Oc3cc(F)c(F)c(F)c3)cc2F)ccc2c1C(=O)N(C1CCC(=O)NC1=O)C2` (centres unmarked) [Example 15, [2-(2,6-dioxopiperidin-3-yl)-4-methoxy-3-oxo-2,3-dihydro-1H-isoindol-5-yl]methyl N-[2-fluoro-4-(3,4,5-trifluorophenoxy)phenyl]carbamate], at GSPT1, the half-maximal degradation concentration (DC50) was over 14 µM and the Dmax turned out to be 48%. Moreover, on Cyclin E1, the DC50 stood at 35 nM, the Dmax came to 109% and the “Ratio of GSPT1 DC50/Cyclin E1 DC50” value is reported as over 395. For the same molecule, in the experiment with Phospho-Rb (Ser807/811), half-maximal inhibition (IC50) was put at 127 nM and the Emax is 109%.
As to `COc1c(COC(=O)Nc2ccc(Oc3ccc(F)cc3Cl)cc2C)ccc2c1C(=O)N(C1CCC(=O)NC1=O)C2` (centres unmarked) [Example 103, [2-(2,6-dioxopiperidin-3-yl)-4-methoxy-3-oxo-2,3-dihydro-1H-isoindol-5-yl]methyl N-[4-(2-chloro-4-fluorophenoxy)-2-methylphenyl]carbamate], at GSPT1, the DC50 was over 14 µM and the Dmax is 22%. For the same molecule, at Cyclin E1, the DC50 was 148 nM, the Dmax turned out to be 107% and the “Ratio of GSPT1 DC50/Cyclin E1 DC50” value is over 95. Further, in the experiment on Phospho-Rb (Ser807/811), inhibition was half-maximal at 86 nM (IC50) and the Emax is 100%.
Take `COc1cc(Oc2ccc(F)c(C)c2)ccc1NC(=O)OCc1ccc2c(c1OC)C(=O)N(C1CCC(=O)NC1=O)C2` (centres unmarked) [Example 97, [2-(2,6-dioxopiperidin-3-yl)-4-methoxy-3-oxo-2,3-dihydro-1H-isoindol-5-yl]methyl N-[4-(4-fluoro-3-methylphenoxy)-2-methoxyphenyl]carbamate]: on GSPT1, the DC50 was over 14 µM and the Dmax amounted to 24%. Moreover, on Cyclin E1, the DC50 turned out to be 357 nM, the Dmax stood at 106% and the “Ratio of GSPT1 DC50/Cyclin E1 DC50” value is over 39. In addition, in the experiment on Phospho-Rb (Ser807/811), the half-inhibitory concentration (IC50) was determined as 326 nM and the Emax was determined as 101%.
On to `COc1c(COC(=O)Nc2ccc(Oc3ccc(F)c(F)c3)cc2C)ccc2c1C(=O)N(C1CCC(=O)NC1=O)C2` (centres unmarked) [Example 38, [2-(2,6-dioxopiperidin-3-yl)-4-methoxy-3-oxo-2,3-dihydro-1H-isoindol-5-yl]methyl N-[4-(3,4-difluorophenoxy)-2-methylphenyl]carbamate], for which, at GSPT1, half-maximal degradation (DC50) was put at 4 µM and the Dmax turned out to be 46%. On Cyclin E1, it took 91 nM to reach half-maximal degradation (DC50), the Dmax was 107% and the “Ratio of GSPT1 DC50/Cyclin E1 DC50” value is given as 44. For the same molecule, in the experiment with Phospho-Rb (Ser807/811), half-maximal inhibition (IC50) was put at 128 nM and the Emax was 111%.
For `COc1cc(F)c(F)cc1Oc1ccc(NC(=O)OCc2ccc3c(c2OC)C(=O)N(C2CCC(=O)NC2=O)C3)c(C)c1` (centres unmarked) [Example 33, [2-(2,6-dioxopiperidin-3-yl)-4-methoxy-3-oxo-2,3-dihydro-1H-isoindol-5-yl]methyl N-[4-(4,5-difluoro-2-methoxyphenoxy)-2-methylphenyl]carbamate], on GSPT1, the DC50 was over 14 µM and the Dmax worked out at 8%. Besides, on Cyclin E1, the DC50 was found to be 1630 nM, the Dmax came to 85% and the “Ratio of GSPT1 DC50/Cyclin E1 DC50” value is over 9. Besides, in the experiment with Phospho-Rb (Ser807/811), the IC50 amounted to 809 nM and the Emax is 87%.
